Columns and labels:
Assay in all cases: KINOMEscan
Format in all cases: binding
Details in all cases: 1 μM of compound 4; read-out: POC
[1] = target: BLK (Homo sapiens, UniProt P51451)
[2] = target: T1, GSK3A (Homo sapiens, UniProt P49840)
T1 construct: purchased Eurofins DiscoverX Corporation

[3] = target: T2, ABL1(T315I)-phosphorylated (Homo sapiens, UniProt P00519, T315I)
T2 construct: purchased Eurofins DiscoverX Corporation

[4] = target: BRSK2 (Homo sapiens, UniProt Q8IWQ3)
[5] = target: MAP4K5 (Homo sapiens, UniProt Q9Y4K4)
[6] = target: T3, ABL1(Y253F)-phosphorylated (Homo sapiens, UniProt P00519, Y253F)
T3 construct: purchased Eurofins DiscoverX Corporation

[7] = target: T4, FER (Homo sapiens, UniProt P16591)
T4 construct: purchased Eurofins DiscoverX Corporation

[8] = target: T5, RAF1 (Homo sapiens, UniProt P04049)
T5 construct: purchased Eurofins DiscoverX Corporation (KINOMEscan screening service)

[9] = target: CSNK1E (Homo sapiens, UniProt P49674)
[10] = target: IRAK3 (Homo sapiens, UniProt Q9Y616)
[11] = target: KIT(V559D + V654A) (Homo sapiens, UniProt P10721, V559D/V654A)
[12] = target: PRKCH (Homo sapiens, UniProt P24723)
[13] = target: MKNK1 (Homo sapiens, UniProt Q9BUB5)
[14] = target: T6, RIOK3 (Homo sapiens, UniProt O14730)
T6 construct: purchased Eurofins DiscoverX Corporation (KINOMEscan screening service)

[15] = target: AKT3 (Homo sapiens, UniProt Q9Y243)
[16] = target: T7, STK39 (Homo sapiens, UniProt Q9UEW8)
T7 construct: purchased Eurofins DiscoverX (KINOMEscan service)

[17] = target: CAMK2B (Homo sapiens, UniProt Q13554)
[18] = target: CDKL3 (Homo sapiens, UniProt Q8IVW4)
[19] = target: PRP4 (Homo sapiens, UniProt Q13523)
[20] = target: MYO3A (Homo sapiens, UniProt Q8NEV4)
[21] = target: NEK5 (Homo sapiens, UniProt Q6P3R8)
[22] = target: T8, FGFR3 (Homo sapiens, UniProt P22607)
T8 construct: purchased Eurofins DiscoverX Corporation

[23] = target: KIT(D816H) (Homo sapiens, UniProt P10721, D816H)
[24] = target: BRK (Homo sapiens, UniProt Q13882)
[25] = target: MAP3K1 (Homo sapiens, UniProt Q13233)
[26] = target: CSNK1D (Homo sapiens, UniProt P48730)
[27] = target: T9, ERK4 (Homo sapiens, UniProt P31152)
T9 construct: purchased Eurofins DiscoverX Corporation

[28] = target: T10, TNIK (Homo sapiens, UniProt Q9UKE5)
T10 construct: purchased Eurofins DiscoverX Corporation

[29] = target: T11, ERK8 (Homo sapiens, UniProt Q8TD08)
T11 construct: purchased Eurofins DiscoverX Corporation

[30] = target: BMX (Homo sapiens, UniProt P51813)
[31] = target: T12, TIE1 (Homo sapiens, UniProt P35590)
T12 construct: purchased Eurofins DiscoverX Corporation

[32] = target: T13, EGFR(L858R + T790M) (Homo sapiens, UniProt P00533, L858R/T790M)
T13 construct: purchased Eurofins DiscoverX (KINOMEscan service)

[33] = target: LZK (Homo sapiens, UniProt O43283)
[34] = target: JAK2(JH1domain-catalytic) (Homo sapiens, UniProt O60674)
[35] = target: MLK1 (Homo sapiens, UniProt P80192)
[36] = target: MEK5 (Homo sapiens, UniProt Q13163)
[37] = target: T14, FLT3(K663Q) (Homo sapiens, UniProt P36888, K663Q)
T14 construct: purchased Eurofins DiscoverX Corporation

[38] = target: LIMK1 (Homo sapiens, UniProt P53667)
[39] = target: KIT(A829P) (Homo sapiens, UniProt P10721, A829P)
Chain of KIT(A829P) (P10721 26-976 A829P): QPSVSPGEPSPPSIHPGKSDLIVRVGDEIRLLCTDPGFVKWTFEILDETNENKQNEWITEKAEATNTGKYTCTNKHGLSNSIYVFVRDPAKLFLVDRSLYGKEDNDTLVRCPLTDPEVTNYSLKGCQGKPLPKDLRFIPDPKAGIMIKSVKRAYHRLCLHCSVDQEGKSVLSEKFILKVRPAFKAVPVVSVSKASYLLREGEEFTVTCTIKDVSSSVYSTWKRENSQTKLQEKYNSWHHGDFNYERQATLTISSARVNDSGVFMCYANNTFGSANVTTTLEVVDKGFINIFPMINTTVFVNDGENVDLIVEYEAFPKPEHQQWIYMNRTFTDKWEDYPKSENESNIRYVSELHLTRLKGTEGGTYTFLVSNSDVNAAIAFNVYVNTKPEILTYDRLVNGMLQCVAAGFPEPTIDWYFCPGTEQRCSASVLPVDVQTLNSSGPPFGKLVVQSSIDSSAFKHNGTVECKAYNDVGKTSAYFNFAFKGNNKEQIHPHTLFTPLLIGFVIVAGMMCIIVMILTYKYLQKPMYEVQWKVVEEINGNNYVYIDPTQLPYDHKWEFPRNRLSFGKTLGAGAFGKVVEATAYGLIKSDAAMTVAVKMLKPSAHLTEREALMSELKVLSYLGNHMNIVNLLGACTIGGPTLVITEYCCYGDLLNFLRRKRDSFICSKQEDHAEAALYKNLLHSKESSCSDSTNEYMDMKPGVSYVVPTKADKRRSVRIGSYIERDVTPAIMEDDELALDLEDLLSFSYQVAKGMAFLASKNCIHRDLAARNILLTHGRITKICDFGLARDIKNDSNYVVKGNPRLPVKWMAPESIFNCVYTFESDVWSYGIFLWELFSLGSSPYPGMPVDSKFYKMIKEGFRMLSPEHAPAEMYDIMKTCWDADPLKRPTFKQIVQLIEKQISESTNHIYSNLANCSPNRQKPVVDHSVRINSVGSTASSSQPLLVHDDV

Chain of MYO3A (Q8NEV4 whole entry): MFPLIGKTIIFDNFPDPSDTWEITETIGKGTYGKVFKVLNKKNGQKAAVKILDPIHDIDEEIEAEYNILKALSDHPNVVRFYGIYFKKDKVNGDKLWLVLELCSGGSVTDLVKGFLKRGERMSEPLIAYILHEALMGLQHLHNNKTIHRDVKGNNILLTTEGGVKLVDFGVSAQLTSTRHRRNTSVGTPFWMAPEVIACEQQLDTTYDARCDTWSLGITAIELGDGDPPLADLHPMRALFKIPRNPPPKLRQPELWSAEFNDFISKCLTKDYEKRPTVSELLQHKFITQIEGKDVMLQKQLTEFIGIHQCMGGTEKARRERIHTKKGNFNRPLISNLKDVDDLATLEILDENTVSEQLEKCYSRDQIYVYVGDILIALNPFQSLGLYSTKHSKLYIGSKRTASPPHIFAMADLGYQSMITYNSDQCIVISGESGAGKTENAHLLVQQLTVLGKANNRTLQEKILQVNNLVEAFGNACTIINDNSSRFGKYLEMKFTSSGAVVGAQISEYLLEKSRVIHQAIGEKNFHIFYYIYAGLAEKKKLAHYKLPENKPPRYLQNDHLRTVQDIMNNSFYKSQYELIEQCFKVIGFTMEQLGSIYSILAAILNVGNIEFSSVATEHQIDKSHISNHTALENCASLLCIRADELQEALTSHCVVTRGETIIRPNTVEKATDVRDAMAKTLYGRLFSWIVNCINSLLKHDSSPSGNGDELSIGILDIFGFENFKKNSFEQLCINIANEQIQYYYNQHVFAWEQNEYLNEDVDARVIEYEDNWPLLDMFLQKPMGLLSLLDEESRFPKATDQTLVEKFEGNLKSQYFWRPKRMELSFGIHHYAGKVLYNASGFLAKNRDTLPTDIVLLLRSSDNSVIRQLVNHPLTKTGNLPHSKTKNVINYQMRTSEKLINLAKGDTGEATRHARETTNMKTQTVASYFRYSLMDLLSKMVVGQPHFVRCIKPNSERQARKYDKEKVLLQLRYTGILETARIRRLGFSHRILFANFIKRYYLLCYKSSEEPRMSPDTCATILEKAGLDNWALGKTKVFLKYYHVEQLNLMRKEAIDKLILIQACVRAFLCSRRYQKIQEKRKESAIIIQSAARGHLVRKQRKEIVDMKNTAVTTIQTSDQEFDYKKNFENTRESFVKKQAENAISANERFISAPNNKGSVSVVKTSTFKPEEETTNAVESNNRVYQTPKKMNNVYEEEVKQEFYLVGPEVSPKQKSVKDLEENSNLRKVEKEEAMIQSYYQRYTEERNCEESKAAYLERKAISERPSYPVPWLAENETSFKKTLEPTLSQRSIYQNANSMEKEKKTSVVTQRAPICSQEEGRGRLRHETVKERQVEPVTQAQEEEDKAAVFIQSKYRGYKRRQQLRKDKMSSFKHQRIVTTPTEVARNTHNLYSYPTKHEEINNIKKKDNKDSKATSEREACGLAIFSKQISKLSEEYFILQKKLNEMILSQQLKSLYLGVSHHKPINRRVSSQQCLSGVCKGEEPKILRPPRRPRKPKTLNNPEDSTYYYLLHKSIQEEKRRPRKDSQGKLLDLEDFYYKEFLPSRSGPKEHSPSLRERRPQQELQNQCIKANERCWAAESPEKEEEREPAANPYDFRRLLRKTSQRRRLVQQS
Chain of IRAK3 (Q9Y616 whole entry): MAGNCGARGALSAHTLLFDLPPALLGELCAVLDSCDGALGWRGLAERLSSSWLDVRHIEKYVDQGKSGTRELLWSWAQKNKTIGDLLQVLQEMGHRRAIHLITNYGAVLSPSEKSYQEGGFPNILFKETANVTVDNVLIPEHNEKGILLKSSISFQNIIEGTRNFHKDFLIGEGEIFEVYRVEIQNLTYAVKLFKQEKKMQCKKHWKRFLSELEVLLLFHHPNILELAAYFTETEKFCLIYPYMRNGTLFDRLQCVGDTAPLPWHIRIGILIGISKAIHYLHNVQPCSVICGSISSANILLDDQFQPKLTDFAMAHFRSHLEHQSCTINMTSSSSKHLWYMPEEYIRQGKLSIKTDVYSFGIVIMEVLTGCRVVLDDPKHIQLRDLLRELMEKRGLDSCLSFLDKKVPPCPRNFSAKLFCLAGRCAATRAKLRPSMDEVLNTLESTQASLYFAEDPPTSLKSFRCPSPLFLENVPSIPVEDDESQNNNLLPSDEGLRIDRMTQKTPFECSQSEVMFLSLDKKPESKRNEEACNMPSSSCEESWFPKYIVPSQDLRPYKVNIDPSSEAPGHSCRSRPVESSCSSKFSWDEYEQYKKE
Chain of BMX (P51813 whole entry): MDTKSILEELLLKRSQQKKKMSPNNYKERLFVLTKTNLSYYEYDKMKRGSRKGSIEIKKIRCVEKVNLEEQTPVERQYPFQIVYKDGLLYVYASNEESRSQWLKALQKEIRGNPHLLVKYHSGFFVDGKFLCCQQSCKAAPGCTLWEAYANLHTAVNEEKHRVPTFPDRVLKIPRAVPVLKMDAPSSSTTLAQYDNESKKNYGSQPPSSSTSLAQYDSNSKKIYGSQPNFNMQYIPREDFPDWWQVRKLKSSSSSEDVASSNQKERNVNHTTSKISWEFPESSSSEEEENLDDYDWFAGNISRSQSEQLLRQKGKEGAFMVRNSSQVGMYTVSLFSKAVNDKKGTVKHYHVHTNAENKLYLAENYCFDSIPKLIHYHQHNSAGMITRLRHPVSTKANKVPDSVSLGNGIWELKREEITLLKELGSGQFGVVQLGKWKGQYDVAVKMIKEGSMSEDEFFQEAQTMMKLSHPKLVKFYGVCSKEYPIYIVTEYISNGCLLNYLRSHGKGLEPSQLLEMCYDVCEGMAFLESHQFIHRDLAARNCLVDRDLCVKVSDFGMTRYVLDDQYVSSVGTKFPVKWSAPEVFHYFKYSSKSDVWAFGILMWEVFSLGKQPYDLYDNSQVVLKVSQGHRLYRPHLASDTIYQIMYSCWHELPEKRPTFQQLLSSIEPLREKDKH
Chain of PRP4 (Q13523 whole entry): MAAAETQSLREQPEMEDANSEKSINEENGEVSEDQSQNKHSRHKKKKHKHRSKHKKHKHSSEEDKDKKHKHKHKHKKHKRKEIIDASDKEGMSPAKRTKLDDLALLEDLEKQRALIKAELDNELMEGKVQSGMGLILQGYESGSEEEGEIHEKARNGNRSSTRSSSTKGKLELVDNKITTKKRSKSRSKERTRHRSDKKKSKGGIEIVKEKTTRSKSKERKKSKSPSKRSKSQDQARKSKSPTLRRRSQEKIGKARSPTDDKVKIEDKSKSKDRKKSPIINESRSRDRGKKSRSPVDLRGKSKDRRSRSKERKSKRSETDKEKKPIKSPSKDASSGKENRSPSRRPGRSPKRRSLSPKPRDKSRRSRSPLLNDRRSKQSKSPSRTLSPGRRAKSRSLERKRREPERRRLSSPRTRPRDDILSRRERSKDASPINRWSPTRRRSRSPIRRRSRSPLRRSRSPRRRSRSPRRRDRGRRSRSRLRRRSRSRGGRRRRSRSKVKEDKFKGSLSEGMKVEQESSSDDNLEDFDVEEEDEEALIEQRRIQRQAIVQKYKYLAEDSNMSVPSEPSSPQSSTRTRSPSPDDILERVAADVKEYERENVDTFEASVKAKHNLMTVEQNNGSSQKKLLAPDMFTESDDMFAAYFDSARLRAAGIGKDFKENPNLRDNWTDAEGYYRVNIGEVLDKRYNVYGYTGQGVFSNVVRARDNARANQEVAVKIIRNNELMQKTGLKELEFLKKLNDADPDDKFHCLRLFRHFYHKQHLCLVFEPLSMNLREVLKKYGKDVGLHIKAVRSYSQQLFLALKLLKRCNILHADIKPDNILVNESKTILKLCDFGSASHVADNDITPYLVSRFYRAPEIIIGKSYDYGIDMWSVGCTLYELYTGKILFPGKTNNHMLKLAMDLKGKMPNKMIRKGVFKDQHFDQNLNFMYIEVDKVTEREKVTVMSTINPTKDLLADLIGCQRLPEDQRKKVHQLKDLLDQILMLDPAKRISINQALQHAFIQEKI
Chain of KIT(D816H) (P10721 26-976 D816H): as the sequence (P10721 26-976 A829P) above, with D791H, P804A counted along it
Chain of KIT(V559D + V654A) (P10721 26-976 V559D/V654A): as the sequence (P10721 26-976 A829P) above, with V534D, V629A, P804A counted along it

C=CC(=O)Nc1ccc(OC)c(Nc2cc(-c3[nH]c(CC)nc3-c3cccc(NC(=O)c4cccc5c4NC(=O)c4ccccc4N5)c3)ccn2)c1 [Compound 4, N-(3-(5-(2-((5-Acrylamido-2-methoxyphenyl)amino)pyridin-4-yl)-2-ethyl-1H-imidazol-4-yl)phenyl)-11-oxo-10,11-dihydro-5H-dibenzo[b,e][1,4]diazepine-9-carboxamide]
remaining binding at 1 µM [1]: 1.7% | remaining binding at 1 µM [2]: 65% | remaining binding at 1 µM [3]: 100% | remaining binding at 1 µM [4]: 93% | remaining binding at 1 µM [5]: 2.5% | remaining binding at 1 µM [6]: 72% | remaining binding at 1 µM [7]: 36% | remaining binding at 1 µM [8]: 73% | remaining binding at 1 µM [9]: 88% | remaining binding at 1 µM [10]: 39% | remaining binding at 1 µM [11]: 93% | remaining binding at 1 µM [12]: 69% | remaining binding at 1 µM [13]: 100% | remaining binding at 1 µM [14]: 100% | remaining binding at 1 µM [15]: 100% | remaining binding at 1 µM [16]: 85% | remaining binding at 1 µM [17]: 72% | remaining binding at 1 µM [18]: 100% | remaining binding at 1 µM [19]: 46% | remaining binding at 1 µM [20]: 14% | remaining binding at 1 µM [21]: 100% | remaining binding at 1 µM [22]: 94% | remaining binding at 1 µM [23]: 39% | remaining binding at 1 µM [24]: 96% | remaining binding at 1 µM [25]: 100% | remaining binding at 1 µM [26]: 87% | remaining binding at 1 µM [27]: 100% | remaining binding at 1 µM [28]: 33% | remaining binding at 1 µM [29]: 100% | remaining binding at 1 µM [30]: 66% | remaining binding at 1 µM [31]: 100% | remaining binding at 1 µM [32]: 8.3% | remaining binding at 1 µM [33]: 90% | remaining binding at 1 µM [34]: 86% | remaining binding at 1 µM [35]: 86% | remaining binding at 1 µM [36]: 41% | remaining binding at 1 µM [37]: 87% | remaining binding at 1 µM [38]: 79% | remaining binding at 1 µM [39]: 56%
